# Assay results published in publication PMC8424300, “Identification of novel microtubule inhibitors effective in fission yeast and human cells and their effects on breast cancer cell lines” (Open Biology, 2021).
# Key:
# [1] = target: T1, porcine brain tubulin heterodimer (Sus scrofa, UniProt P02550+P02554); assay: In vitro tubulin polymerization assay; type: biochemical; conditions: IC50 of tubulin polymerization
# T1 construct: highly purified porcine brain tubulin heterodimer; purchased Cytoskeleton T240 (kit BK011P); host or cells: porcine brain tissue
# T1 sequence (P02554 whole entry): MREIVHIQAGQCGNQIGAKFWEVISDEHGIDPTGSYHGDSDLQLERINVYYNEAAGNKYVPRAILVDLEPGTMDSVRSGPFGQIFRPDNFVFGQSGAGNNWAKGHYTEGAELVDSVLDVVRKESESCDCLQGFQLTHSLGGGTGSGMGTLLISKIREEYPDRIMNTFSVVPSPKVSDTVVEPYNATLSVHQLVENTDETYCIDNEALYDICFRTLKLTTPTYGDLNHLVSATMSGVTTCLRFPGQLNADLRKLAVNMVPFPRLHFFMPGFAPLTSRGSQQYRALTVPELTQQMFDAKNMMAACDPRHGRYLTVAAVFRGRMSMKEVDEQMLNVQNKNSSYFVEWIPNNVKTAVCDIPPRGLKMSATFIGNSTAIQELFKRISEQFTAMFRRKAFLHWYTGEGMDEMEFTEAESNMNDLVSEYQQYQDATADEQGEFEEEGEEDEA
# T1 sequence (P02550 whole entry): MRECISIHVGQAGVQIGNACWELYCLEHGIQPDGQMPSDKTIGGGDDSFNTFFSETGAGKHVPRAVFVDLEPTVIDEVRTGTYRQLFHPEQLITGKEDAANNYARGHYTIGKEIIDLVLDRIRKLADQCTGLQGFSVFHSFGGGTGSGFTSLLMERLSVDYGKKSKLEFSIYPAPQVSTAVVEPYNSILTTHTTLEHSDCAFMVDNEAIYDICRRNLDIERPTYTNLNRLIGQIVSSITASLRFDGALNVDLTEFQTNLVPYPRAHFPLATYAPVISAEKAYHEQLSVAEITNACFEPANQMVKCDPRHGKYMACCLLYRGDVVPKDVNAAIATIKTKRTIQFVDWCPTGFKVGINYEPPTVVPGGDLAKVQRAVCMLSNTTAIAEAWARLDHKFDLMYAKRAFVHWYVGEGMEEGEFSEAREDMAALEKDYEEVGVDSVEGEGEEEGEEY
# Protocol: To determine whether the 12 compounds affected mitotic spindle organization by directly interfering with tubulin polymerization, we performed in vitro tubulin polymerization assays. […] Tubulin polymerization was monitored every 1 min by measuring fluorescence absorbance at 340 nm for 1 h.
# Figure 3. […] Tubulin was incubated with 5 µM of the compounds and DMSO for 60 min at 37°C. The fluorescence increase was monitored every minute at 340 nm. […] (b). […] Nocodazole (NOC) was used as the control. (c). […] (d) The same experiment as (c) but carried out at a different time.
# The Tubulin Polymerization HTS Assay Kit (Cytoskeleton, BK011P) was used according to the manufacturer's instructions. All components were added into a 96-well microtiter plate (Corning Costar, cat. no. 3686), then the tubulin reaction mixture was quickly added to the wells, and tubulin polymerization was initiated and monitored every 1 min at 37°C for 1 h by recording fluorescence of excitation wavelength at 340 nm and emission at 450 nm. The tubulin reaction mixture was composed of 80 mM PIPES (pH 6.9), and 1 mM MgCl2, 1 mM EGTA, 1 mM GTP and 2 mg ml^−1 of highly purified porcine brain tubulin heterodimer (Cytoskeleton, cat. no. T240).
# CAL51 cells = assay: Clonogenic (colony-forming) assay; type: cell-based, human; conditions: 12 h exposure, 9 days growth
# Protocol: Finally, a clonogenic assay was used to further evaluate the synergy effects between the L1 and Plk1 inhibitors to inhibit colony formation of breast cancer CAL51 cells after a 12 h drug exposure. The percentages of colony formation of cells treated with 0.1 nM BI2536 alone and 0.5 µM L1 alone were 89% and 67%, respectively, while cells treated with both 0.1 nM BI2536 and 0.5 µM L1 together were 2% (figure 10) indicating strong synergetic effects in colony formation.
# Figure 10. Quantification of the colony formation experiments (n = 3) after a 12 h exposure. CAL51 cells were treated with vehicle control, 0.1 nM BI2536, 0.5 µM L1 or 0.1 nM BI2536 and 0.5 µM L1 for 12 h. Cells were grown for 9 days in fresh media after 12 h exposure. Mean ± s.e.m. (n = 3) is shown.
# CAL51 cells were plated at a density of 200 cells per 60 mm tissue culture dish. After 24 h, they were treated with vehicle (DMSO), 0.1 nM BI2538, 0.5 µM L1 or the combination of 0.1 nM BI2538 and 0.5 µM L1, respectively, for 12 h. After an exposure, the cells were washed with warm sterile PBS, and incubated for additional 9 days in fresh media. After the incubation, cells were fixed and stained with a 20% MeOH: 0.01% crystal violet solution for 30 min. Colonies were counted using a stereomicroscope in three independent experiments.
# MCF-10A = assay: Viability dose-response in non-cancer mammary cell line; type: cell-based, human
# Protocol: The sensitivity of the inhibitors L1, J3, A15 and M2 were evaluated in three breast cancer cell lines, (BT549, CAL51 and MB-157) and a non-cancer cell line from the human mammary gland, MCF-10A (figure 8). Drug sensitivity was determined by culturing breast cancer cell lines (black lines) and the non-cancer cell line (red line) with a range of concentrations of each compound, and viability was measured after 4 days of treatment in triplicate.
# Figure 8. Dose–response curves in three cancer cell lines (BT549, CAL51 and MB-157) are shown in black and non-cancer cell line; MCF-10A is shown in red. They were subjected to a dose–response matrix of the tubulin inhibitor, L1, A15, M2 and J3, respectively. Viability relative to the vehicle control was measured […] after treatment. Mean ± s.e.m. for n = 3 experiments is shown.
# Cells were plated in 384-well plates at a density of 800 cells per well in 22.5 µl of media. After 24 h, 2.5 µl drug was diluted in media and was added to each well. Following 5 days of incubation, viability was assessed using CellTiter-Glo (Promega) according to the manufacture's protocol. Luminescence in each well was measured using a Synergy Neo2 plate reader (BioTek).
# [2] = tested on: fission yeast mutant strains (nda2-KM52, nda3-KM311, cdc25-22, cut14-208, act1-48); assay: Drug sensitivity of fission yeast mutants spotted on YE medium; type: cell-based, Schizosaccharomyces pombe; conditions: figure S3
# Protocol: The Schizosaccharomyces pombe SAK933 strain (h90 ade6 leu1 ura4-D18 GFP-atb2≪kanr sid4-mcherry≪hygr caf5::bsdR pap1Δ pmd1Δ mfs1Δ bfr1Δ dnf2 Δ erg5::ura4+) [57] used for the phenotypic screening in this study was grown at 30°C in yeast extract (YE) medium containing adenine, leucine, uridine and histidine. A haploid wild-type strain 972 h^- and its derivative strains were used in the electronic supplementary material, figure S3: nda2-km52, nda3-km311 [58], cdc25-22 [59, 60], cdc14-208 [61] and act1-48 [62] spotted onto YE medium containing the same four supplements above and incubated for 3 days at 30°C.
# [3] = target: T2, tubulin (colchicine-binding site) (Sus scrofa, UniProt P02550+P02554); assay: Fluorescence-based colchicine displacement assay; conditions: for fluorescence of the colchicine-tubulin complex: 2 µM tubulin + 2 µM colchicine set 100%
# T2 construct: purchased Cytoskeleton, Inc
# T2 sequence (P02554 whole entry): as the sequence (P02554 whole entry) above
# T2 sequence (P02550 whole entry): as the sequence (P02550 whole entry) above
# Protocol: Figure 6. […] Each value represents the mean ± s.e.m. of three independent experiments.
# Reaction mixtures were excited at 380 nm and the emission was measured at 438 nm. Values were exported as Excel files and graphs were generated in Prism V9 GraphPad.
smiles,measurement,setting,value
COc1cc(Br)cc2c1OC(c1ccc3c(c1)OCO3)C([N+](=O)[O-])=C2 (stereo not shown) [L1],IC50,"[1]; figure 3c, 37°C, 1 h",470 nM
same,IC50,"[1]; figure 3d, same experiment carried out at a different time",460 nM
same,percentage of colony formation,CAL51 cells; 0.1 nM BI2536 and 0.5 µM L1 together,2%
same,percentage of colony formation,CAL51 cells; 0.5 µM L1 alone,67%
same,IC50,"MCF-10A; Homo sapiens, 96 h, MCF-10A, 4 days of treatment",9600 nM
same,IC50 in MCF-10A relative to the three breast cancer cell lines,MCF-10A; ratio non-cancer / cancer lines,more than threefold higher
same,"drug sensitivity of cdc25-22, cut14-208 and act1-48 mutants",[2],No such drug hypersensitivity
same,fluorescence of the colchicine-tubulin complex,[3]; 5 µM L1,87%
same,fluorescence of the colchicine-tubulin complex,[3]; 10 µM L1,71%
same,colchicine-tubulin interaction,[3]; 50 µM L1,abolished the interaction between colchicine and tubulin complex completely
